Results as given in patent publication US20110098214A1 (priority 2005, published 2011).
Square brackets hold non-standard residues; d marks the D form. Ends that are not written are not given here. Peptide text beside a SMILES is read from it.

Key:
[1] = tested on: mouse model for endotoxemia; details: in vivo
[2] = molecular target: T1, human IL-1β (Pepro Tech) (human, UniProt P01584 117-269); assay: batch adsorption on peptide-immobilized silica beads, in an LPS solution (500 ng/mL LPS) containing IL-1β
T1 construct: Commercial protein added at 200 ng/mL to the LPS solution

binding result [2] | Molecule | short term toxicity (weight) [1]
 | CC[C@H](C)[C@H](NC(=O)[C@H](CO)NC(=O)[C@H](CO)NC(=O)[C@@H](NC(=O)[C@H](CO)NC(=O)[C@H](CO)NC(=O)[C@H](CO)NC(=O)[C@H](Cc1ccc(O)cc1)NC(=O)[C@H](N)CCCCN)[C@@H](C)CC)C(=O)N[C@@H](CCCNC(=N)N)C(=O)NCC(=O)NCC(=O)N[C@@H](CC(C)C)C(=O)N[C@@H](CC(C)C)C(=O)N[C@@H](CC(C)C)C(=O)N[C@@H](CC(C)C)C(=O)N[C@@H](CC(C)C)C(=O)N[C@@H](CC(C)C)C(=O)N[C@@H](CC(C)C)C(=O)O [Wine Opener, kYSSSISSIRGGLLLLLLL] (H-[dK]YSSSISSIRGGLLLLLLL-OH; N-terminus and C-terminus assumed) | no short term toxicity which affected weight
no binding (tested: 200 ng/mL IL-1β) | KNYSSSISSIHAC (also: immobilized on silica beads via C-terminal Cys thiol, In the assay it was immobilized on propionyl chloride functionalized silica gel beads) [peptide Li5 C] | 
